Measured values taken from ChEMBL document CHEMBL1201862, “PubChem BioAssay data set” (2004).
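Step 1: Grow cells in 96-well plates. Step 2: Expose to compound for 48 hours at 5 concentrations. Step 3: Interpolate endpoints linearly; if unreached, use highest concentration. The concentration for 50% growth inhibition is given as GI50.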 The source made the active and inactive calls. No stated cut-off is given here; in the data, active = GI50 up to about 1.1 µM and inactive = higher.

Legend:
Assay in all cases: NCI tumour cell line growth inhibition, 48 h
HCT-15 = tested on: HCT-15
HCT-116 = tested on: HCT-116
HT-29 = tested on: HT-29
NCI-H460 = tested on: NCI-H460
RPMI-8226 = tested on: RPMI-8226
U-251 = tested on: U-251
A549 = tested on: A549
SK-OV-3 = tested on: SK-OV-3
SF-268 = tested on: SF-268
IGROV-1 = tested on: IGROV-1
NCI-H23 = tested on: NCI-H23
TK-10 = tested on: TK-10
UACC-62 = tested on: UACC-62
HCC 2998 = tested on: HCC 2998
NCI-H226 = tested on: NCI-H226
UACC-257 = tested on: UACC-257

Compound | GI50 (HCT-15) | GI50 (HCT-116) | GI50 (HT-29) | GI50 (NCI-H460) | GI50 (RPMI-8226) | GI50 (U-251) | GI50 (A549) | GI50 (SK-OV-3) | GI50 (SF-268) | GI50 (IGROV-1) | GI50 (NCI-H23) | GI50 (TK-10) | GI50 (UACC-62) | GI50 (HCC 2998) | GI50 (NCI-H226) | GI50 (UACC-257)
O=[N+]([O-])c1ccc(C2CC(c3ccc(NCc4nc5ccccc5[nH]4)cc3)=NO2)cc1 (stereo not drawn) | 30.7 µM | 27.4 µM (inactive) | 38.5 µM (inactive) | 15.6 µM (inactive) | 18.5 µM (inactive) | 36.4 µM (inactive) | 98.2 µM (inactive) | > 100 µM (inactive) | > 100 µM (inactive) | 75.7 µM (inactive) | 34.6 µM (inactive) | 89.3 µM (inactive) | 70.3 µM (inactive) | 85.5 µM (inactive) |  | 
CC(C)/C=C1\CCC(CN2CCOCC2)C1=O (stereo not drawn) | 5.85 µM | 5.35 µM (inactive) | 6.7 µM (inactive) | 28.1 µM (inactive) | 0.964 µM (active) | > 42.4 µM (inactive) | 26.3 µM (inactive) | > 100 µM (inactive) | 22.9 µM (inactive) | 14.4 µM (inactive) | 17.4 µM (inactive) | 12.9 µM (inactive) | 18 µM (inactive) | 20.2 µM (inactive) | 30.5 µM (inactive) | 7.78 µM (inactive)
COc1ccc(/C=C2\CN(C)Cc3c2nc(N)nc3-c2ccc(OC)cc2)cc1 |  | > 100 µM (inactive) |  | > 100 µM (inactive) | 24.6 µM (inactive) | 67.5 µM (inactive) | 48.4 µM (inactive) | > 100 µM (inactive) | > 100 µM (inactive) | > 100 µM (inactive) | > 100 µM (inactive) | > 100 µM (inactive) | 87.1 µM (inactive) | 16.6 µM (inactive) | > 100 µM (inactive) | 
CCCCCCCCCCCCCC(=S)N/C=C/OC | 22.9 µM | 30.5 µM (inactive) | 21.3 µM (inactive) | 29.3 µM (inactive) | 23.6 µM (inactive) | 21.4 µM (inactive) | 37.4 µM (inactive) | > 100 µM (inactive) | 43 µM (inactive) | 41.3 µM (inactive) | 28.2 µM (inactive) | > 100 µM (inactive) | 20.7 µM (inactive) | 19 µM (inactive) | 43.8 µM (inactive) | 24.5 µM (inactive)
NC1N=Nc2ccccc21 (stereo not drawn) | > 100 µM | > 100 µM (inactive) | > 100 µM (inactive) | > 100 µM (inactive) | > 100 µM (inactive) | > 100 µM (inactive) | > 100 µM (inactive) | > 100 µM (inactive) | > 100 µM (inactive) | > 100 µM (inactive) | > 100 µM (inactive) | > 100 µM (inactive) |  | > 100 µM (inactive) | > 100 µM (inactive) | > 100 µM (inactive)
O=S(=O)(c1ccccc1)C1CN2OC1(S(=O)(=O)c1ccccc1)CC2c1ccc(Br)cc1 (stereo not drawn) | > 100 µM | > 100 µM (inactive) | > 100 µM (inactive) | > 100 µM (inactive) | > 100 µM (inactive) | 54.2 µM (inactive) | > 100 µM (inactive) | > 100 µM (inactive) | 14.9 µM (inactive) | > 100 µM (inactive) | > 100 µM (inactive) | 59 µM (inactive) | > 100 µM (inactive) | > 100 µM (inactive) | > 100 µM (inactive) | 68.4 µM (inactive)
COc1ccc2c(c1OC)C(=O)C2 | > 100 µM | > 100 µM (inactive) | > 100 µM (inactive) | > 100 µM (inactive) | > 100 µM (inactive) | > 100 µM (inactive) | > 100 µM (inactive) | > 100 µM (inactive) | > 100 µM (inactive) |  | > 100 µM (inactive) | > 100 µM (inactive) | > 100 µM (inactive) |  | > 100 µM (inactive) | > 100 µM (inactive)
N#CCCN(c1ccc(/C=N/c2ccccc2)cc1)S(=O)(=O)c1ccccc1 |  | > 100 µM (inactive) | 17 µM (inactive) |  | > 100 µM (inactive) |  | > 100 µM (inactive) | > 100 µM (inactive) | > 100 µM (inactive) | > 100 µM (inactive) | > 100 µM (inactive) | > 100 µM (inactive) | 3.27 µM (inactive) | 5.22 µM (inactive) | > 100 µM (inactive) | > 100 µM (inactive)
CC(=O)N/N=C1\CC(C)(C)C2CCC1C2 (stereo not drawn) | > 100 µM | > 100 µM (inactive) |  | > 100 µM (inactive) | > 100 µM (inactive) | > 100 µM (inactive) | > 100 µM (inactive) | > 100 µM (inactive) | > 100 µM (inactive) | > 100 µM (inactive) | > 100 µM (inactive) | > 100 µM (inactive) | > 100 µM (inactive) |  |  | > 100 µM (inactive)
COC1(C)CC2N(C(=O)c3ccccc3)N=C(c3ccccc3)CC2(C)O1 (stereo not drawn) | > 100 µM | > 100 µM (inactive) | > 100 µM (inactive) | 69.5 µM (inactive) | 89.5 µM (inactive) |  | > 100 µM (inactive) | > 100 µM (inactive) | > 100 µM (inactive) | > 100 µM (inactive) |  |  | 43.3 µM (inactive) | 96.4 µM (inactive) | > 100 µM (inactive) | > 100 µM (inactive)
O=C1C(Cl)C(c2ccc(O)cc2)N1n1cnc2ccccc2c1=O (stereo not drawn) | 27.4 µM | 17.1 µM (inactive) | 29.4 µM (inactive) | 33.1 µM (inactive) | 19 µM (inactive) | 45.4 µM (inactive) | > 100 µM (inactive) | > 100 µM (inactive) | 45.6 µM (inactive) | > 57.5 µM (inactive) | 31 µM (inactive) | 40.6 µM (inactive) | 18.7 µM (inactive) | 61.8 µM (inactive) | > 100 µM (inactive) | 43.6 µM (inactive)
CC(=O)OC1COC(N2C(=O)C(=O)c3c(C)cc(Cl)nc32)C(OC(C)=O)C1OC(C)=O (stereo not drawn) | > 100 µM | > 100 µM (inactive) | > 100 µM (inactive) | > 100 µM (inactive) | > 100 µM (inactive) | > 100 µM (inactive) | > 100 µM (inactive) |  | > 100 µM (inactive) | > 100 µM (inactive) | > 100 µM (inactive) | > 100 µM (inactive) | > 100 µM (inactive) |  | > 100 µM (inactive) | > 100 µM (inactive)
CCCCCCCCCCCOC(=S)NC(C)C | 17.5 µM | 17.5 µM (inactive) | 17.1 µM (inactive) | 21.3 µM (inactive) | 14 µM (inactive) | 15.8 µM (inactive) | 21.4 µM (inactive) | 19.3 µM (inactive) | 21.2 µM (inactive) | 20.6 µM (inactive) | 19.3 µM (inactive) | 28.2 µM (inactive) | 15.5 µM (inactive) | 17 µM (inactive) |  | 19.1 µM (inactive)
Cc1nn(-c2nc3ccccc3s2)c2c1C(=O)c1ccccc1-2 | > 100 µM | > 100 µM (inactive) | > 100 µM (inactive) | > 100 µM (inactive) | > 100 µM (inactive) | 60.7 µM (inactive) | > 100 µM (inactive) | > 100 µM (inactive) | > 100 µM (inactive) | > 100 µM (inactive) | > 100 µM (inactive) | > 100 µM (inactive) | > 100 µM (inactive) | > 100 µM (inactive) |  | > 100 µM (inactive)
C[Si](C)(C)c1ccc(CC2(Cc3ccc([Si](C)(C)C)cc3)CCNC2)cc1 | 2.16 µM | 1.69 µM (inactive) | 2.04 µM (inactive) | 2.04 µM (inactive) |  | 1.66 µM (inactive) | 2.29 µM (inactive) | 1.63 µM (inactive) | 2.22 µM (inactive) | 2.58 µM (inactive) | 1.97 µM (inactive) | 21 µM (inactive) | 2.02 µM (inactive) | 2.11 µM (inactive) | 1.88 µM (inactive) | 2.44 µM (inactive)
COc1ccc(C2Oc3ccc(O)cc3[C@@H]2C)cc1OC (stereo partly drawn) | 52.6 µM | > 100 µM (inactive) | > 100 µM (inactive) | > 100 µM (inactive) | 4.05 µM (inactive) | > 100 µM (inactive) | > 100 µM (inactive) | > 100 µM (inactive) | > 100 µM (inactive) | > 100 µM (inactive) | 94.6 µM (inactive) | > 100 µM (inactive) | > 100 µM (inactive) | > 100 µM (inactive) | > 100 µM (inactive) | > 100 µM (inactive)
NC(=O)N1N=C2c3ccccc3CC[C@@H]2C1c1ccccc1 (stereo partly drawn) | > 100 µM | > 100 µM (inactive) | > 100 µM (inactive) | > 100 µM (inactive) | 63.2 µM (inactive) | > 100 µM (inactive) | > 100 µM (inactive) | > 100 µM (inactive) | > 100 µM (inactive) | > 100 µM (inactive) | > 100 µM (inactive) | > 100 µM (inactive) | > 100 µM (inactive) | > 100 µM (inactive) | > 100 µM (inactive) | > 100 µM (inactive)
COc1ccc(/C=C/c2cc(OC)c(O[Si](C)(C)C(C)(C)C)c(OC)c2)cc1 | > 100 µM | 55.6 µM (inactive) | > 100 µM (inactive) | 42.2 µM (inactive) | 45 µM (inactive) | 98.6 µM (inactive) | > 100 µM (inactive) | > 100 µM (inactive) | > 100 µM (inactive) | > 100 µM (inactive) | 17.2 µM (inactive) |  | 75.2 µM (inactive) | > 100 µM (inactive) | 30.3 µM (inactive) | 28.4 µM (inactive)
CCCC1(CC(=O)O)OCCc2c1[nH]c1ccccc21 (stereo not drawn) [PRODOLIC ACID] | > 100 µM |  |  |  | > 100 µM (inactive) | > 100 µM (inactive) | > 100 µM (inactive) | > 100 µM (inactive) | > 100 µM (inactive) | > 100 µM (inactive) | > 100 µM (inactive) | > 100 µM (inactive) | > 100 µM (inactive) | > 100 µM (inactive) | > 100 µM (inactive) | > 100 µM (inactive)
